# Assays:
# Cholesterinbiosynthese = assay: Inhibition of cholesterol biosynthesis from [14C] sodium acetate in HEP-G2 cell monolayers; format: cell-based; conditions: Homo sapiens, HepG2, HEP-G2-Zellen, 1 h preincubation, 3 h with [14C] sodium acetate, read-out: Cholesterin in Prozent der Kontrolle; for activity at 0.01 µM: Konzentration 10⁻⁸ M
# Source text: Monolayer von HEP-G2-Zellen in lipoproteinfreiem Nährmedium werden mit entsprechenden Konzentrationen der zu prüfenden Substanzen aus den Beispielen 1, 3, 4, 5, 6, 8 und 15 eine Stunde vorinkubiert. Nach Zugabe der ¹⁴C-markierten Biosynthesevorstufe [¹⁴C]Natriumacetat wird die Inkubation für 3 Stunden fortgesetzt. Danach wird ein Teil der Zellen alkalisch verseift, bei vorheriger Zugabe eines internen Standards von ³H-Cholesterin. Die Lipide der verseiften Zellen werden mit einem Gemisch aus Chloroform-Methanol extrahiert. Dieses Lipidgemisch wird nach Zusatz von Trägercholesterin präparativ dünnschichtchromatographisch aufgetrennt, die Cholesterinbande nach Anfärbung isoliert und die aus dem ¹⁴C-Precursor gebildete Menge ¹⁴C-Cholesterin szintigraphisch bestimmt. In einem aliquoten Teil der Zellen wurde Zellprotein bestimmt, sodaß die in der Zelleinheit pro mg Zellprotein aus ¹⁴C-Vorläufer gebildete Menge ¹⁴C-Cholesterin berechnet werden kann. Zum Vergleich für die Hemmwirkung eines zugesetzten Prüfpräparates dient die Kontrolle, so daß direkt die Hemmung der Cholesterinbiosynthese bei einer bestimmten molaren Konzentration des Prüfpräparates im Medium angegeben werden kann. In aliquoten Anteilen der Zellkultur wird die Intaktheit der Zellkultur und die fehlende Zellschädigung durch Präparateeinwirkung morphologisch (Lichtmikroskopie) beurteilt und biochemisch durch Bestimmung der Laktat-Dehydrogenase Ausschüttung im Inkubationsmedium gemessen. Als Standardpräparat wurde ®Lovastatin (Merck-Sharp-Dohm) benutzt.
# in vitro = conditions: hela or vero cells
# Influenza A = assay: microbe, parasite or virus in culture; format: cell-based; conditions: 72 h, read-out: MHK
# Herpes I = assay: Antiviral activity in cell culture (CPE, neutral red uptake); format: cell-based; conditions: HeLa or Vero cells, 72 h, MHK = concentration at which about 50 % of the cells survived the infection
# Vaccina = assay: microbe, parasite or virus in culture; format: cell-based; conditions: 72 h, read-out: MHK
# Herpes II = assay: Antiviral activity in cell culture (CPE, neutral red uptake); format: cell-based; conditions: HeLa or Vero cells, 72 h, MHK = concentration at which about 50 % of the cells survived the infection
# Rhinovirus II = assay: as above; format: cell-based; conditions: Enterovirus; Rhino. II; HeLa or Vero cells, 72 h; MHK = concentration at which about 50 % of the cells survived the infection
structure (smiles),measurement,setting,value
"CC[C@H](C)C(=O)O[C@H]1C[C@@H](C)C=C2C=C[C@H](C)[C@H](CC[C@@H]3C[C@@H](O)CC(=O)O3)[C@H]21 [Lovastatin, reference compound]",activity at 0.01 µM,Cholesterinbiosynthese,55%
"CC1CC(O[C@H]2O[C@H](COCc3ccccc3)[C@@H](OCc3ccccc3)[C@H](OCc3ccccc3)[C@H]2OCc2ccccc2)CCC2OC(C)(C)OC2CC(=O)O1 (stereo partly drawn) [Verbindung 1, 4,5-Dihydroxy-O-isopropyliden-10-methyl-1-oxa-8(2,3,4,6-tetra-O-benzyl-α-D-glucopyranosyl-oxy)-2-cyclodecanon]",activity at 0.01 µM,Cholesterinbiosynthese,41%
"COC1C=CC(OC)C(OC)CC(=O)OC(C)C1 (stereo not shown) [Verbindung 3, 10-Methyl-4,5,8-trimethoxy-1-oxa-6-cyclodecen-2-on]",activity at 1 µM,Cholesterinbiosynthese; Konzentration 10⁻⁶ M,28%
same,activity at 0.01 µM,Cholesterinbiosynthese,33%
"CC(=O)OC1CCC(O)C(O)CC(=O)OC(C)C1 (stereo not shown) [Verbindung 4, 8-Acetyloxy-4,5-dihydroxy-10-methyl-1-oxa-cyclodecan-2-on]",activity at 0.01 µM,Cholesterinbiosynthese,45%
"CC1CC(O)C2OC2C(O)C(O)CC(=O)O1 (stereo not shown) [Verbindung 5, 2-Carbonyl-10-methyl-1-oxa-4,5,8-trihydroxy-6-cyclodecenoxid]",activity at 0.01 µM,Cholesterinbiosynthese,33%
"CC(=O)OC1/C=C/C(OC(C)=O)C(OC(C)=O)CC(=O)OC(C)C1 (stereo not shown) [Verbindung 6, 10-Methyl-1-oxa-4,5,8-triacetyloxy-6-cyclodecen-2-on]",MNTC at 72 h,in vitro,133 µg/mL
same,EC50,Influenza A,14 µg/mL
same,EC50,Herpes I,0.55 µg/mL
same,activity at 10 µM,Cholesterinbiosynthese; Konzentration 10⁻⁵ M,32%
same,activity at 0.1 µM,Cholesterinbiosynthese; Konzentration 10⁻⁷ M,30%
same,EC50,Vaccina,0.49 µg/mL
same,EC50,Herpes II,0.55 µg/mL
same,EC50,Rhinovirus II,44.4 µg/mL
"CC1CC(OC=O)C=CC(O)C(O)CC(=O)O1 (stereo not shown) [Verbindung 8, 4,5-Dihydroxy-8-formyl-oxy-10-methyl-1-oxa-6-cyclodecen-2-on]",activity at 0.01 µM,Cholesterinbiosynthese,67%
"CC1CC(O)CCC(O)C(O)CC(=O)O1 (stereo not shown) [Verbindung 15, 10-Methyl-1-oxa-4,5,8-trihydroxy-cyclodecan-2-on]",activity at 0.01 µM,Cholesterinbiosynthese,73%

# Source: patent publication EP0516015A1, “Substituted decarestrictines, methods for their preparation and use thereof” (HOECHST AKTIENGESELLSCHAFT, priority 1991, dated 1992)
